Consider two compounds from paper PMC6156230, “Caspase-1 inhibition alleviates cognitive impairment and neuropathology in an Alzheimer’s disease mouse model” (Nature Communications, 2018).

Test in all cases: fluorogenic AFC peptide substrate assay
Holding throughout (type): biochemical

One assay addresses T1, human Casp5 (Homo sapiens, UniProt P51878).
T1 construct: recombinant caspase, commercial (BioVision)
T1 sequence (P51878 137-327): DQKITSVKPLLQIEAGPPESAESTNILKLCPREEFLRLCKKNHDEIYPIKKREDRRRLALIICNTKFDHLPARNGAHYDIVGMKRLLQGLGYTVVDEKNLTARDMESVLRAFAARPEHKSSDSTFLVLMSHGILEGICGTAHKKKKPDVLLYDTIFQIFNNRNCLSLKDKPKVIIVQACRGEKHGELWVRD
T1 sequence (P51878 347-434): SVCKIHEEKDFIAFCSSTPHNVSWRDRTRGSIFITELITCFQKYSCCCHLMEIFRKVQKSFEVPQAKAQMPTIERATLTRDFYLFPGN
Particulars: 10 µM Ac-WEHD-AFC, pH 7.2, 37 °C, 10 mM DTT.

Another assay addresses T2, human Casp9 (Homo sapiens, UniProt P55211).
T2 construct: recombinant caspase, commercial (BioVision)
T2 sequence (P55211 1-315): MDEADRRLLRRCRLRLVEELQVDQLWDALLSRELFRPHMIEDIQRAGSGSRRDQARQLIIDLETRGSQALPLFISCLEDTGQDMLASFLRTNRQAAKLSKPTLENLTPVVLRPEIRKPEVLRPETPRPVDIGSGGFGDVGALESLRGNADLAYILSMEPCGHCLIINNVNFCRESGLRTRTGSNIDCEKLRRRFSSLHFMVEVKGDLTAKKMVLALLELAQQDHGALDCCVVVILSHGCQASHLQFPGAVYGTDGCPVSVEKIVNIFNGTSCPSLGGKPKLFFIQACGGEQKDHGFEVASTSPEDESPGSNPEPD
T2 sequence (P55211 331-416): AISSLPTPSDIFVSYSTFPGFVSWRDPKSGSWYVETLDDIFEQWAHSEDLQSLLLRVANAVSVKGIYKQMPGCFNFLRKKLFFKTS
Particulars: 10 µM Ac-LEHD-AFC, pH 7.2, 37 °C, 10 mM DTT.

For the next assay, the target named is T3, human Casp10 (Homo sapiens, UniProt Q92851).
T3 construct: recombinant caspase, commercial (BioVision)
T3 sequence (Q92851 220-415): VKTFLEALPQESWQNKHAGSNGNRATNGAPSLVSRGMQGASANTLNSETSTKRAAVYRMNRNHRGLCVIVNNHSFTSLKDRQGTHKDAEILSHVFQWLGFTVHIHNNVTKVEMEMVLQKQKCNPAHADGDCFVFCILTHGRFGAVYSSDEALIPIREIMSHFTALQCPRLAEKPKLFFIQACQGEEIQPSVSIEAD
T3 sequence (Q92851 416-521): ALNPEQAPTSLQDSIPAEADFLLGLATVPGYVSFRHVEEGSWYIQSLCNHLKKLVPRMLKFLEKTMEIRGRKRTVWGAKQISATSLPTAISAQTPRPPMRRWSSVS
As to conditions: 10 µM Ac-IETD-AFC, pH 7.2, 37 °C, 10 mM DTT.

The target of another assay is T4, human Casp8 (Homo sapiens, UniProt Q14790).
T4 construct: recombinant caspase, commercial (BioVision)
T4 sequence (Q14790 217-374): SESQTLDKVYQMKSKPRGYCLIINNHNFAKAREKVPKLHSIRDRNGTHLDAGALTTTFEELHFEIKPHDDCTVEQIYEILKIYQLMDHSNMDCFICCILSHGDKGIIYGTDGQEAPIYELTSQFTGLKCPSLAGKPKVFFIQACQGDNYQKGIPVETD
T4 sequence (Q14790 385-479): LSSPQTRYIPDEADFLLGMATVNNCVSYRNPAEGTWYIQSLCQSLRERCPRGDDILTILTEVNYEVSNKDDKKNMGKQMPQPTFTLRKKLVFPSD
Particulars: 10 µM Ac-IETD-AFC, pH 7.2, 37 °C, 10 mM DTT.

The target in a further assay is T5, human Casp1 (Homo sapiens, UniProt P29466).
T5 construct: recombinant caspase, commercial (BioVision)
T5 sequence (P29466 120-297): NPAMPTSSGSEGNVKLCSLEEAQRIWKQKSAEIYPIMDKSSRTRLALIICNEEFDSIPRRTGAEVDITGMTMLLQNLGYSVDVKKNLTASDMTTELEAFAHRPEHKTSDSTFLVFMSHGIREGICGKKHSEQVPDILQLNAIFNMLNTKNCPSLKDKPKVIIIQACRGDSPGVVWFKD
T5 sequence (P29466 317-404): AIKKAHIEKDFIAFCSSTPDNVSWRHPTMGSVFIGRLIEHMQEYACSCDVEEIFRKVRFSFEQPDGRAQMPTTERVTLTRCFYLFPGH

In the next assay the target is T6, mouse recombinant Casp1 (Mus musculus, UniProt P29452).
T6 construct: recombinant caspase, commercial
T6 sequence (P29452 119-296): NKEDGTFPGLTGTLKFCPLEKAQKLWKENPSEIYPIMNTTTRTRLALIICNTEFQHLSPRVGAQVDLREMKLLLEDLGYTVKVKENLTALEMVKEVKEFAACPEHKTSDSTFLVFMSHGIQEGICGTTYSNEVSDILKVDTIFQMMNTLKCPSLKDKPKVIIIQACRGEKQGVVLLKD
T6 sequence (P29452 315-402): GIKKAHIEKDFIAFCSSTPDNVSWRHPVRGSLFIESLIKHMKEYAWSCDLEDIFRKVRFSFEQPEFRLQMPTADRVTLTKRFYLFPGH

One may read the IC50 as the midpoint of a concentration-inhibition curve.

On to `CCO[C@@H]1OC(=O)C[C@@H]1NC(=O)[C@@H]1CCCN1C(=O)[C@@H](NC(=O)c1ccc(N)c(Cl)c1)C(C)(C)C` [VX-765], for which the IC50 result against human Casp5 is “Casp5, Casp8, Casp9 and Casp10, which were inhibited in the nanomolar range in vitro”; against human Casp9, “Casp5, Casp8, Casp9 and Casp10, which were inhibited in the nanomolar range in vitro”; against human Casp10, “Casp5, Casp8, Casp9 and Casp10, which were inhibited in the nanomolar range in vitro”; against human Casp8, “Casp5, Casp8, Casp9 and Casp10, which were inhibited in the nanomolar range in vitro”.

For the compound `CC(C)(C)[C@H](NC(=O)c1ccc(N)c(Cl)c1)C(=O)N1CCC[C@H]1C(=O)N[C@H](C=O)CC(=O)O` [VRT-043198], the IC50 entry against human Casp5 was “Casp5, Casp8, Casp9 and Casp10, which were inhibited in the nanomolar range in vitro”; against human Casp9 it was “Casp5, Casp8, Casp9 and Casp10, which were inhibited in the nanomolar range in vitro”; against human Casp1, 9.91 nM; at mouse recombinant Casp1, 18 nM; against human Casp10, “Casp5, Casp8, Casp9 and Casp10, which were inhibited in the nanomolar range in vitro”; on human Casp8, “Casp5, Casp8, Casp9 and Casp10, which were inhibited in the nanomolar range in vitro”.
